Where “and” joins values, the source holds several entries; their conditions need not be identical. Identical values can stand only once. Like-named read-outs stand apart in the source and are kept apart here.
Columns and labels:
[1] = Stability test under stress conditions (PXRD, DSC, appearance, HPLC); conditions: stress conditions; for Content / Purity: HPLC; for Content Change / Purity Change / Water content Change: start to 4 weeks
[2] = accelerated conditions; for Content / Purity: HPLC; for Content Change / Purity Change / Water content Change: start to 6 months
Procedure: The five compounds were tested for stability under stress conditions and accelerated conditions.

[3] = Pharmacokinetic comparison test in normal rats; type: in vivo, rats (SD rats); conditions: normal rats
From the text: (§1) Specifically, the maximum plasma concentration (Cmax) and the area under the plasma concentration curve (AUClast) in the normal rats and the rats treated with esomeprazole were compared to evaluate the absorption of the drugs in the actual animals.
(§2) In order to compare the pharmacokinetic parameters, 8-week old male rats (SD rats) with a body weight of about 250 g were used as test animals.

[4] = Pharmacokinetic comparison test in beagle dogs; type: in vivo
From the text: A comparison of the pharmacokinetic parameters (i.e., the maximum plasma concentration and the area under the plasma concentration curve) calculated therefrom are shown in Table 8 and FIG. 14.

[5] = Pharmacokinetic comparison test in rats treated with esomeprazole; type: in vivo, rats (SD rats)
From the text: as §1, §2
A comparison of the pharmacokinetic parameters (i.e., the maximum plasma concentration and the area under the plasma concentration curve) calculated therefrom are shown in Table 7 and FIGS. 12 and 13.

[6] = Rats treated with esomeprazole (i.v. 5 mg/2 mL/kg for 3 days), oral 30 mg/5 ml/kg
[7] = esomeprazole-treated vs normal rats, listed as Comparative Example 1

SMILES | DSC onset ([1]; 2 weeks) | Water content ([1]; 2 weeks) | DSC onset ([1]; 4 weeks) | Water content ([1]; 4 weeks) | Content ([1]; 2 weeks) | Purity ([1]; 2 weeks) | Content ([1]; 4 weeks) | Purity ([1]; 4 weeks) | Content ([1]; Start) | DSC onset ([1]; Start) | Water content ([1]; Start) | Content Change [1] | Purity Change [1] | Water content Change [1] | Water content ([2]; 1 mo) | Water content ([2]; 3 mos) | DSC onset ([2]; 6 mos) | Water content ([2]; 6 mos) | Content ([2]; 1 mo) | Purity ([2]; 1 mo) | other results
C=CC(=O)Nc1cc(Nc2nccc(-n3cc(CN(C)C)c(-c4ccccc4)n3)n2)c(OC)cc1N1CCOCC1.O=C(O)CC(O)(CC(=O)O)C(=O)O [C. Ex. 3, Citrate Salt of N-(5-(4-(4-((dimethylamino)methyl)-3-phenyl-1H-pyrazol-1-yl)pyrimidine-2-ylamino)-4-methoxy-2-morpholinophenyl)acrylamide] | 182 °C | 0.62% | 181 °C | 1.47% | 98.9% | 98.8% | 98.6% | 98.7% | 100.0% | 182 °C | 0.65% | −1.4% | −0.5% | +0.82% | 0.83% | 3.05% | 183 °C | 3.50% | 100.5% | 98.9% | Purity ([1]; Start): 99.2%; DSC onset ([2]; 3 mos): 180 °C; Content ([2]; 3 mos): 101.0%; Purity ([2]; 3 mos): 98.9%; Content ([2]; 6 mos): 98.7%; Purity ([2]; 6 mos): 97.7%; Content ([2]; Start): 100.0%; Purity ([2]; Start): 99.2%; Water content ([2]; Start): 0.65%; Content Change [2]: −1.3%; Purity Change [2]: −1.5%; Water content Change [2]: +2.85%
C=CC(=O)Nc1cc(Nc2nccc(-n3cc(CN(C)C)c(-c4ccccc4)n3)n2)c(OC)cc1N1CCOCC1.CCS(=O)(=O)O [C. Ex. 4, Esilate Salt of N-(5-(4-(4-((dimethylamino)methyl)-3-phenyl-1H-pyrazol-1-yl)pyrimidine-2-ylamino)-4-methoxy-2-morpholinophenyl)acrylamide] | 222, ° C. and 227 °C | 1.37% | 172, ° C. and 193, ° C. and 219 °C | 3.81% | 94.7% | 99.0% | 89.5% | 98.9% | 96.5% | 223 °C | 1.15% | −7% | −0.6% | +2.03% | 2.48% | 2.98% | 218 °C | 3.17% | 96.1% | 99.1% | Appearance (color) ([1]; 4 weeks): Violet; Appearance (color) ([1]; Start): Yellow; DSC onset ([2]; 1 mo): 222 °C; Content ([2]; 3 mos): 95.1%; Purity ([2]; 3 mos): 99.0%; Content ([2]; 6 mos): 91.4%; Purity ([2]; 6 mos): 98.4%; Purity ([2]; Start): 99.5%; Appearance (color) ([2]; Start): Y; Content Change [2]: −5.1%; Purity Change [2]: −1.1%; Water content Change [2]: +2.02%
C=CC(=O)Nc1cc(Nc2nccc(-n3cc(CN(C)C)c(-c4ccccc4)n3)n2)c(OC)cc1N1CCOCC1.Cl [C. Ex. 2, Hydrochloride Salt of N-(5-(4-(4-((dimethylamino)methyl)-3-phenyl-1H-pyrazol-1-yl)pyrimidine-2-ylamino)-4-methoxy-2-morpholinophenyl)acrylamide] | 269 °C | 1.23% | 269 °C | 1.44% | 96.2% | 99.1% | 95.2% | 99.1% | 97.4% | 267 °C | 0.86% | −2.2% | +0.1% | +0.58% | 0.98% | 1.47% | 271 °C | 1.28% | 97.0% | 99.0% | Purity ([1]; Start): 99.0%; Appearance (color) ([1]; Start): Yellow; Appearance (color) ([2]; 1 mo): Y; DSC onset ([2]; 1 mo): 272 °C; Appearance (color) ([2]; 3 mos): Y; DSC onset ([2]; 3 mos): 271 °C; Content ([2]; 3 mos): 98.3%; Purity ([2]; 3 mos): 98.9%; Content ([2]; 6 mos): 97.6%; Purity ([2]; 6 mos): 98.8%; Purity ([2]; Start): 99.0%; Appearance (color) ([2]; Start): Y; Water content ([2]; Start): 0.86%; Content Change [2]: +0.2%; Purity Change [2]: −0.2%; Water content Change [2]: +0.42%
C=CC(=O)Nc1cc(Nc2nccc(-n3cc(CN(C)C)c(-c4ccccc4)n3)n2)c(OC)cc1N1CCOCC1 [C. Ex. 1, N-(5-(4-(4-((dimethylamino)methyl)-3-phenyl-1H-pyrazol-1-yl)pyrimidine-2-ylamino)-4-methoxy-2-morpholinophenyl)acrylamide] |  |  |  |  |  |  |  |  |  |  |  |  |  |  |  |  |  |  |  |  | Area under the plasma concentration curve lower than that of the mesylate salt form (Example 1) [3]: 10.4%; Maximum plasma concentration lower than that of the mesylate salt form (Example 1) [3]: 11.0%; Area under the plasma concentration curve lower than that of the mesylate salt form (Example 1) [4]: 50.4%; Maximum plasma concentration lower than that of the mesylate salt form (Example 1) [4]: 40.1%; Area under the plasma concentration curve (AUClast) [5, 6]: 2636.7 ng·h/mL; Maximum plasma concentration (Cmax) [5, 6]: 223.0 ng/mL; Area under the plasma concentration curve reduced in the esomeprazole-treated rats as compared with the normal rats [5, 7]: 63.8%; Maximum plasma concentration reduced in the esomeprazole-treated rats as compared with the normal rats [5, 7]: 69.3%; Area under the plasma concentration curve lower than that of the mesylate salt form (Example 1) ([5]; rats treated with esomeprazole): 49.4%; Maximum plasma concentration lower than that of the mesylate salt form (Example 1) ([5]; rats treated with esomeprazole): 47.8%
